These results are taken from publication PMC12874371, “Screening of FDA-Approved Small Molecules to Discover Inhibitors of the Pseudomonas aeruginosa Quorum-Sensing Enzyme, PqsE” (Biochemistry, 2026).

The target in one assay is T1, intracellular PqsE (Pseudomonas aeruginosa, UniProt P20581).
T1 construct: endogenous in cells; host or cells: P. aeruginosa UCBPP-PA14 wild type
In kind it is cell-based. Conditions: 8 h growth.

In another assay the test system is azeB expression. The assay can be described thus: azeB-luxCDABE reporter (dual pyocyanin/azeB-lux assay). The conditions noted are these: 50 and 100 μM, azeB-lux reporter strains.
The target of a further assay is T2, PqsE(WT) (Pseudomonas aeruginosa, UniProt P20581).
T2 construct: 6xHis (N); made in house; host or cells: E. coli BL21 (DE3), pET28b-6xHis-pqsE(WT) (strain SM776)
The assay can be described thus: biochemical.

For the next assay, the target named is T3, PqsE(S285W) (Pseudomonas aeruginosa, UniProt P20581, S285W).
T3 construct: 6xHis (N); made in house; host or cells: E. coli BL21 (DE3), pET28b-6xHis-pqsE(S285W) (strain IT55)
Briefly: biochemical.

SMILES strings stand for the structures.

A word on the IC50: it is the concentration at which inhibition is half-maximal. A lower IC50 goes with inhibition by little substance. In the case of `O=C(CCCCCCC(=O)Nc1ccccc1)NO` [Vorinostat], the Decrease in acetophenone at intracellular PqsE (10 μM, wildtype P. aeruginosa) is reported as 30%. Also, at intracellular PqsE (100 μM, compared to pqsE(D73A) strain), the “Effect on acetophenone levels at 100 μM” value was “full inhibition of PqsE catalytic activity”. The “Effect on azeB expression (luminescence/OD600)” value (from here on “Effect on azeB expression”) in the assay on azeB expression is given as “not accompanied by increases in azeB expression”. Besides, on PqsE(WT), the IC50 is 1.2 µM.
Turning to `CN1CCc2cccc3c2[C@H]1Cc1ccc(O)c(O)c1-3` [Apomorphine], the IC50 at PqsE(S285W) stood at 22 µM; against PqsE(WT), 18 µM. On intracellular PqsE (10 and 100 μM), the “Effect on acetophenone levels” value is recorded as “no significant effect on acetophenone levels”. The “Effect on azeB expression” value with azeB expression is recorded as “not accompanied by increases in azeB expression”.
Regarding `O=c1n(CCCN2CCN(c3cccc(Cl)c3)CC2)nc2ccccn12` [Trazodone], the “Effect on azeB expression” value with azeB expression is reported as “not accompanied by increases in azeB expression”.
